The test system of assay [1] is LTB4 production by calcium ionophore-stimulated human blood. The experiment in a line: LTB4 production by calcium ionophore-stimulated human blood for LTA4H inhibitor activity. Type of assay: cell-based. The protocol:
Assay 3: LTB4 Production by Calcium Ionophore-Stimulated Human Blood for LTA4H Inhibitor Activity
Human blood was collected from healthy donors in heparin-containing syringes. The blood was diluted 1:1 with RPMI-1640 medium, and 200-μL aliquots of the diluted blood were added to wells of a 96-well microtiter plate. LTA4H inhibitor test compounds were prepared at different concentrations in RPMI-1640 medium containing 1% DMSO, and 20 μL of each test solution was added to a well containing diluted whole blood (final DMSO concentration of 0.1%). After the microtiter plate contents were incubated for 15 min at 37° C. in a humidified incubator, calcium ionophore A23187 (Sigma Chemical Co., St. Louis, Mo.) was added to each sample well (final concentration=7 μg/mL). The incubation was continued under the same conditions for an additional 30 min to allow LTB4 formation. The reaction was terminated by centrifugation (833×g, 10 min at 4° C.), and supernatants were analyzed for LTB4 by a commercially available enzyme-linked immunoassay (Cayman Chemical Co.) according to the manufacturer's instructions. Positive controls, under essentially identical conditions but without addition of an inhibitor compound, and negative unstimulated controls, containing all assay components except calcium ionophore, were routinely run in each experiment. IC50 values for compounds tested in this assay were determined by nonlinear regression of the activity data at different compound concentrations using Graphpad Prism 4.0, one site binding competition, and are presented in Table 3. The number of determinations made is indicated in parentheses following each value.

The subject of another assay is neutrophil influx. In words: Murine arachidonic acid-induced inflammation model: neutrophil influx in ear, myeloperoxidase activity (% Inh. MPO). The assay is classed as in vivo. The note with it: Mus musculus, female Balb/c mice, 30 mg/kg oral gavage, ear biopsy 3 h after topical arachidonic acid, number of determinations in parentheses. In a few lines:
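Female Balb/c mice were dosed orally at 30 mg/kg (20% cyclodextran/H2O). Ear biopsies at 3 h; MPO activity by TMB, A405, acetone ear subtracted; inhibition versus vehicle-dosed mice.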

Where [2] appears, read: human blood diluted 1:1, calcium ionophore A23187, LTB4 by immunoassay, n in parentheses, read-out: IC50.

Read-outs that look alike come from different tables or passages of the source.

The term IC50 denotes the concentration that inhibits the measured activity by half. In general, inhibition in vivo refers to the change of the read-out against control, counted positive when it falls. As for `NC(=O)N1C[C@@H]2C[C@H]1CN2Cc1ccc(Oc2nc3ncccc3s2)cc1` [Example 106, (1S,4S)-5-[4-([1,3]Thiazolo[4,5-b]pyridin-2-yloxy)benzyl]-2,5-diazabicyclo[2.2.1]heptane-2-carboxamide], the IC50 in assay [1] (setting [2]) amounted to 141 nM. Besides, the inhibition in vivo at 30 mg/kg with neutrophil influx stood at 95.2%.
On to `CC(=O)N[C@H]1C[C@H]2CC[C@@H](C1)N2Cc1ccc(Oc2nc3ncccc3s2)cc1` [Example 116, meso-N-{(3-endo)-8-[4-([1,3]Thiazolo[4,5-b]pyridin-2-yloxy)benzyl]-8-azabicyclo[3.2.1]oct-3-yl}acetamide], for which, in assay [1] (Homo sapiens), the IC50 is 19 nM. In addition, the inhibition in vivo at 30 mg/kg with neutrophil influx amounted to 70%.
Regarding `CC(=O)N1C[C@@H]2C[C@H]1CN2CCOc1ccc(Oc2nc3ncccc3s2)cc1` [Example 14, 2-(4-{2-[(1S,4S)-5-Acetyl-2,5-diazabicyclo[2.2.1]hept-2-yl]ethoxy}phenoxy)[1,3]thiazolo[4,5-b]pyridine], the IC50 in assay [1] (setting [2]) is 79 nM. In addition, in the assay on neutrophil influx, the inhibition in vivo at 30 mg/kg came to 72.3%.
The corresponding values for `NC(=O)C1CCN(CCOc2ccc(Oc3nc4ncccc4s3)cc2)CC1` [Example 31, 1-{2-[4-([1,3]Thiazolo[4,5-b]pyridin-2-yloxy)phenoxy]ethyl}piperidine-4-carboxamide] are 53 nM and 70.5%.
The corresponding values for `CC(=O)N1C[C@H]2C[C@@H]1CN2CCOc1ccc(Oc2nc3ncccc3s2)cc1` [Example 267, 2-(4-{2-[(1R,4R)-5-Acetyl-2,5-diazabicyclo[2.2.1]hept-2-yl]ethoxy}phenoxy)[1,3]thiazolo[4,5-b]pyridine] are 57 nM and 90.6%.
With `CC(=O)N1CC2CN(CCc3ccc(Oc4nc5ncccc5s4)cc3)CC2C1` (stereo not drawn) [Example 73, 2-{4-[2-(5-Acetylhexahydropyrrolo[3,4-c]pyrrol-2(1H)-yl)ethyl]phenoxy}[1,3]thiazolo[4,5-b]pyridine], the IC50 in assay [1] (setting [2]) was determined as 227 nM. The inhibition in vivo at 30 mg/kg with neutrophil influx is 79.4%.
Regarding `O=C1CCCN1C1CCN(Cc2ccc(Oc3nc4ncccc4s3)cc2)CC1` [Example 83, 1-{1-[4-([1,3]Thiazolo[4,5-b]pyridin-2-yloxy)benzyl]piperidin-4-yl}pyrrolidin-2-one], the IC50 in assay [1] (setting [2]) worked out at 134 nM. The inhibition in vivo at 30 mg/kg with neutrophil influx worked out at 88.2%.
For `CC(=O)N1C[C@@H]2C[C@H]1CN2Cc1ccc(Oc2nc3ncc(C)cc3s2)cc1` [Example 121, 2-(4-{[(1S,4S)-5-Acetyl-2,5-diazabicyclo[2.2.1]hept-2-yl]methyl}phenoxy)-6-methyl[1,3]thiazolo[4,5-b]pyridine], in assay [1] (setting [2]), the IC50 came to 88 nM. Moreover, the inhibition in vivo at 30 mg/kg with neutrophil influx was found to be 83%.
For the molecule `CC(=O)N[C@@H]1C[C@H]2CC[C@@H](C1)N2Cc1ccc(Oc2nc3ncccc3s2)cc1` [Example 109, meso-N-{(3-exo)-8-[4-([1,3]Thiazolo[4,5-b]pyridin-2-yloxy)benzyl]-8-azabicyclo[3.2.1]oct-3-yl}acetamide], the IC50 in assay [1] (Homo sapiens) is 87 nM. The inhibition in vivo at 30 mg/kg with neutrophil influx amounted to 71.5%.
Turning to `NC(=O)N1C[C@@H]2C[C@H]1CN2CCc1ccc(Oc2nc3ncccc3s2)cc1` [Example 45, (1S,4S)-5-{2-[4-([1,3]Thiazolo[4,5-b]pyridin-2-yloxy)phenyl]ethyl}-2,5-diazabicyclo[2.2.1]heptane-2-carboxamide], in assay [1] (setting [2]), the half-maximal inhibitory concentration (IC50) was 256 nM. Further, the inhibition in vivo at 30 mg/kg in the assay on neutrophil influx worked out at 71.1%.
Consider `CC(=O)N1C[C@H]2CC[C@@H](C1)N2CCc1ccc(Oc2nc3ncccc3s2)cc1` [Example 55, meso-2-(4-{2-[3-Acetyl-3,8-diazabicyclo[3.2.1]oct-8-yl]ethyl}phenoxy)[1,3]thiazolo[4,5-b]pyridine], for which the IC50 in assay [1] (setting [2]) came to 99 nM. Also, the inhibition in vivo at 30 mg/kg with neutrophil influx amounted to 73.5%.
As to `CC(=O)N1C[C@@H]2C[C@H]1CN2CCc1ccc(Oc2nc3ncccc3s2)cc1` [Example 75, 2-(4-{2-[(1S,4S)-5-Acetyl-2,5-diazabicyclo[2.2.1]hept-2-yl]ethyl}phenoxy)[1,3]thiazolo[4,5-b]pyridine], the IC50 in assay [1] (setting [2]) is 299 nM. For the same molecule, the inhibition in vivo at 30 mg/kg in the assay on neutrophil influx stood at 68.1%.
For `NC(=O)N1C[C@H]2C[C@@H]1CN2Cc1ccc(Oc2nc3ncccc3s2)cc1` [Example 266, (1R,4R)-5-[4-([1,3]Thiazolo[4,5-b]pyridin-2-yloxy)benzyl]-2,5-diazabicyclo[2.2.1]heptane-2-carboxamide], in that order: 154 nM and 85.8%.
Regarding `O=C1CCCN1C1CCN(CCOc2ccc(Oc3nc4ncccc4s3)cc2)CC1` [Example 32, 1-(1-{2-[4-([1,3]Thiazolo[4,5-b]pyridin-2-yloxy)phenoxy]ethyl}piperidin-4-yl)pyrrolidin-2-one], in assay [1] (setting [2]), the half-inhibitory concentration (IC50) was found to be 8 nM. The inhibition in vivo at 30 mg/kg in the assay on neutrophil influx is 76%.
On to `CC(=O)N1C[C@H]2C[C@@H]1CN2Cc1ccc(Oc2nc3ncccc3s2)cc1` [Example 265, 2-(4-{[(1R,4R)-5-Acetyl-2,5-diazabicyclo[2.2.1]hept-2-yl]methyl}phenoxy)[1,3]thiazolo[4,5-b]pyridine], for which, in assay [1] (setting [2]), the IC50 worked out at 72 nM. Moreover, the inhibition in vivo at 30 mg/kg with neutrophil influx came out at 90.8%.

These data come from patent US20110190503A1, “Thiazolopyridin-2-yloxy-phenyl and thiazolopyrazin-2-yloxy-phenyl amines as modulators of leukotriene A4 hydrolase” (Janssen Pharmaceutical NV, priority 2008, published 2011).
